Test results taken from patent publication US20100298551A1, “Methods Of Producing And Sequencing Modified Polynucleotides” (priority 2005, published 2010).

Molecular target: T1, exo− E. coli Polymerase I, Klenow fragment (Escherichia coli, UniProt P00582, D355A/E357A)
T1 construct: 12.5 U exo^− E. coli Polymerase I, Klenow fragment (Epicentre); purchased Epicentre
Assay: Primer extension: incorporation of 3′ thiol-nucleoside triphosphate into a growing DNA strand by DNA polymerase
Assay type: biochemical
Method: DNA synthesis was performed on a single-stranded DNA template (5′-TTTTTTCTAAGGTAGCGACTGTCCTATACAGACTGACAAAAAAAGAGAATGAGGAACCCGGGGCAG-3′) (SEQ ID NO:1), which was labeled at its 5′ end with a dual biotin tag and was attached to a magnetic bead (FIG. 3B). Synthesis was primed using a primer (5′-CTGCCCCGGGTTCCTCATTCTCT-3′) (SEQ ID NO:2), which was complementary to a portion of the DNA template. The primer was labeled with Cy5 at its 5′ end. The DNA template contained 5 adenine nucleotides immediately downstream of the primer sequence. […]

T1 sequence (P00582 324-928 D355A/E357A): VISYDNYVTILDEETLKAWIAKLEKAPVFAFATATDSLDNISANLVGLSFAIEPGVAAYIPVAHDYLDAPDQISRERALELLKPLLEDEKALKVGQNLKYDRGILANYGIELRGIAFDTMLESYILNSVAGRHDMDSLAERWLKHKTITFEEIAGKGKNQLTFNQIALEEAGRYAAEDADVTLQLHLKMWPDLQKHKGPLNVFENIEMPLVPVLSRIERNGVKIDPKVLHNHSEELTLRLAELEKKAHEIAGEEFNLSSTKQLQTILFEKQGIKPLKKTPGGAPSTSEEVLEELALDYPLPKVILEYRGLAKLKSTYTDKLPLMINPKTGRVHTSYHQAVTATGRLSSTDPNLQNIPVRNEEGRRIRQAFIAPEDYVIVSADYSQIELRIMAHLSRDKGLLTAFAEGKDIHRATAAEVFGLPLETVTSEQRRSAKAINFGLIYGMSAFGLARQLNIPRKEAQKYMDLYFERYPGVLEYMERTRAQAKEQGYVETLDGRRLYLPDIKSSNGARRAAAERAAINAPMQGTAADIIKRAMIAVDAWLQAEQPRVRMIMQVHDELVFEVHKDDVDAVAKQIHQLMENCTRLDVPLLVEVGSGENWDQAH

What does the source list for `CSS[C@H]1C[C@H](n2cc(C)c(=O)[nH]c2=O)O[C@@H]1CO` [3′-deoxy-dithiomethyl thymidine]?
modified thymidine residues in the vast majority of reaction products (higher concentration 1.0 mM (FIG. 3E)): 5; number of 3′-deoxy-dithiomethyl thymidine nucleotides incorporated into the DNA product (template with 5 adenines downstream of primer, 37° C., 4.0 min): Up to five
